Measured values reported in PMC9351465, “Mechanism-based heparanase inhibitors reduce cancer metastasis in vivo” (Proceedings of the National Academy of Sciences of the …, 2022).
Values joined by “and” are separate entries in the source; they are usually repeats but may differ in a detail not shown here. Equal entries are not always repeated.

Assays:
U87 glioblastoma cells = assay: Matrigel invasion assay; format: cell-based, human; conditions: 20 µM inhibitor, 4 h
Protocol: Preliminary in cellulo evaluations of our inhibitors’ effects on cancer aggression were conducted using a Matrigel invasion assay, which measures the ability of cells to migrate through transwell inserts coated with the ECM material Matrigel. Matrigel invasion by cells requires a broad complement of proteases and glycosidases, thereby mimicking some aspects of metastasis in vivo ([51]).
(§1) For HS-degradation assays, ECM coated dishes were incubated with 200 ng recombinant HPSE in 1 mL reaction mixture (10 mM buffer Phosphate-Citrate pH 6.0, 50 mM NaCl, 1 mM DTT, 1 mM CaCl2) containing HPSE inhibitors or DMSO control. Plates were incubated at 37°C for 5 h, then assay medium collected and applied to a 0.9×30 cm Sepharose 6B size exclusion column. The Sepharose 6B column was eluted with PBS, and 35S radioactivity of 0.2 mL fractions quantitated using a liquid scintillation analyzer (Packard BioScience) (11). […]
(§2) Cells in the upper chamber were separated by Matrigel from a lower chamber containing 600 µL DMEM, supplemented with 10% FBS. […] 10 randomly selected microscopic fields were recorded, and cell invasion calculated using ImageJ, by quantitating the percentage of the field stained by crystal violet. […]

human platelet HPSE = molecular target: T1, human platelet HPSE (Homo sapiens, UniProt Q9Y251); assay: cABPP of human platelet lysates, HPSE band
T1 sequence (Q9Y251 158-543 limits assumed): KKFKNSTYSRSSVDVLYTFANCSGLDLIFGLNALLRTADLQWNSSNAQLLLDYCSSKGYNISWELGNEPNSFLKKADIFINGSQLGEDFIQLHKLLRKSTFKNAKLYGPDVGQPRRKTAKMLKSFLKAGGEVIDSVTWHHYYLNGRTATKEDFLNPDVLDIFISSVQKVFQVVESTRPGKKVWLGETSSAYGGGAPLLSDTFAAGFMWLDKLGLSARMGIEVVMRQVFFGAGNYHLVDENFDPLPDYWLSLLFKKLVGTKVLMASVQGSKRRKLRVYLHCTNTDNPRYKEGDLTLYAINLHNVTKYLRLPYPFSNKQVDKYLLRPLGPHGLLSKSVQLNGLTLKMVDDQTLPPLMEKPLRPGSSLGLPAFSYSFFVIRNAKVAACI
T1 sequence (Q9Y251 36-109 limits assumed): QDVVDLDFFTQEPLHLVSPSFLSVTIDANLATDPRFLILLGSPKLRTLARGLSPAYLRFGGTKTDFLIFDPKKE

4T1 breast cancer cells = assay: 4T1 murine mammary carcinoma lung metastasis model (luciferase imaging); format: in vivo, mouse; conditions: Balb/c mice, i.p. 300 nmol 2 or 150 μg SST0001, then i.v. 4T1-Luc cells with 2 nmol 2 or 10 μg SST0001; 14 d
Protocol: Since HPSE drives metastasis in multiple cancer types, we tested 2 against another metastasis model—4T1 murine mammary carcinoma, which also migrates to the lungs. Here, we were aided by a constitutive luciferase expressing 4T1 line, enabling real-time tracking of cancer growth by chemiluminescent imaging. Similar to the B16 model, mice were dosed i.p. with 300 nmol of 2 or 150 μg SST0001, followed by i.v. injection of 4T1-Luc cells alongside 2 nmol 2 or 10 μg SST0001.
B16-BL6 melanoma cells/mouse in a volume of 100 µL, alongside 20 µM 2 or 10 µg SST0001.
Mice were sacrificed after 14 days and the lungs were dissected, photographed and evaluated for the number of metastatic foci/lung. Plots and statistical analyses were carried out in Prism […]
Bioluminescence imaging of lung metastases produced by luciferase-expressing 4T1 cells was carried out using a highly sensitive, cooled charge-coupled device camera assembled in a specimen box (IVIS; Xenogen Corp, Hopkinton, MA). […] The tumor burden was quantified using Living Image software (Xenogen) (12, 13). […]
CAG myeloma - Luciferase-labeled CAG human myeloma cells (3x106) were injected into the tail vein of NOD/SCID mice. […] Tumor burden was quantified using Living Image software. […]

[1] = molecular target: T2, endogenous cellular HPSE (U87 glioma cells) (Homo sapiens, UniProt Q9Y251); assay: H35SPG digest by U87 glioma cell lysates, inhibitor before or after lysis; format: cell-based; conditions: inhibitor applied before or after lysis, 18 h digest
T2 construct: endogenous in cells; host or cells: U87 glioma cells
T2 sequence (Q9Y251 158-543 limits assumed): T1 sequence (Q9Y251 158-543 limits assumed)
T2 sequence (Q9Y251 36-109 limits assumed): T1 sequence (Q9Y251 36-109 limits assumed)
Description: Finally, we assessed our inhibitors against HPSE-mediated degradation of bona fide HSPGs in an ECM environment. Cultured bovine corneal endothelial cells secrete a subendothelial basement membrane material rich in proteoglycans, which can be radiolabeled by growth in the presence of ^35SO4^2− ([50]). Solubilized H^35S chains released from H^35SPGs by HPSE digestion can be resolved chromatographically, with HPSE inhibition leading to a corresponding loss of signal. […] We also tested inhibition of endogenous cellular HPSE using this assay format.
Figure S7 Radiolabelled H35SPG basement membrane digests by HPSE expressing U87 cell […]
(1 picture or pasted object on this page, not shown here)
as §1, with “Plates were incubated at 37°C for 5 h, then assay medium collected and applied to a 0.9×30 cm Sepharose 6B size exclusion column.” left out
as §2

IC50 (human platelet HPSE; HPSE IC50, human platelet lysates, cABPP, n = 3): ~530 nM and 530 nM
SMILES: CC(=O)N[C@H]1[C@@H](O[C@H]2[C@H](O)[C@@H](O)[C@@H]3O[C@@H]3[C@@H]2C(=O)O)O[C@H](CO)[C@@H](O)[C@@H]1O [compound 2]
Matrigel invasion (% field stained) (U87 glioblastoma cells): significantly reduced Matrigel invasion | selectivity of HPSE inhibition in platelet lysates (human platelet HPSE; human platelet lysates containing both HPSE and GUSB): highly selective inhibition of human platelet HPSE | lung metastases (bioluminescent flux) (4T1 breast cancer cells): marked reduction in lung metastases | inhibition of intracellular HPSE pool (cell penetration) [1]: can also penetrate cells to inhibit the intracellular HPSE pool
